According to US20250206732A1, “COMPOUNDS AND METHODS FOR THE TARGETED DEGRADATION OF KRAS” (Arvinas Operations, Inc., priority 2022, published 2025):

Target: T1, AsPC-1 HiBiT-KRASG12D (Homo sapiens, UniProt P01116, G12D)
T1 construct: insert the HiBiT tag onto the N-terminus of one or more of the endogenous KRAS alleles; endogenous in cells; host or cells: AsPC-1 (ATCC CRL-1682), CRISPR-Cas9 knock-in clone, one tagged allele
Experiment: HiBiT degradation assay (G12D), AsPC-1 HiBiT-KRASG12D cells
Assay type: cell-based
Settings: 24 hours treatment; for Dmax: ASPC1, AsPC-1 HiBiT-KRASG12D cells, maximum degradation observed; for DC50: AsPC-1 HiBiT-KRASG12D cells, HiBiT luminescence
Procedure, shortened: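 In this degradation format, an engineered AsPC-1 clone with HiBiT fused to the KRAS N-terminus is exposed to compounds for 24 hours, after which remaining tagged protein is quantified by lytic HiBiT luminescence.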

T1 sequence (P01116 1-188 isoform P01116-2 G12D): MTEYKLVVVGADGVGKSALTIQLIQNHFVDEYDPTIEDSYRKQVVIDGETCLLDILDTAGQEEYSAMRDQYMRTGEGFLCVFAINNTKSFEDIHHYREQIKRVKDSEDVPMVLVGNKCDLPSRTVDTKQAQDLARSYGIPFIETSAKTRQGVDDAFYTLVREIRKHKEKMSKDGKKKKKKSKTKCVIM

Row | SMILES | Dmax | DC50
1 | CCc1cccc2cc(O)cc(-c3ncc4c(N5CC6CCC(C5)N6)nc(OC[C@]56CCCN5[C@H](COC(=O)N5C[C@H](C)N(c7cc([C@H](C(=O)N8C[C@H](O)C[C@H]8C(=O)N[C@@H](C)c8ccc(-c9scnc9C)cc8)C(C)C)on7)C[C@H]5C)CC6)nc4c3F)c12 [Compound 296, [(3S,8R)-8-[[4-(3,8-diazabicyclo[3.2.1]octan-3-yl)-7-(8-ethyl-3-hydroxy-1-naphthyl)-8-fluoro-pyrido[4,3-d]pyrimidin-2-yl]oxymethyl]-1,2,3,5,6,7-hexahydropyrrolizin-3-yl]methyl (2R,5S)-4-[5-[(1R)-1-[(2S,4R)-4-hydroxy-2-[[(1S)-1-[4-(4-methylthiazol-5-yl)phenyl]ethyl]carbamoyl]pyrrolidine-1-carbonyl]-2-methyl-propyl]isoxazol-3-yl]-2,5-dimethyl-piperazine-1-carboxylate] | 80 to 100% | < 600 nM
2 | CCc1cccc2cccc(-c3ncc4c(N5CC6CCC(C5)N6)nc(OC[C@]56CCCN5[C@H](COC(=O)N5CC(Oc7cc([C@H](C(=O)N8C[C@H](O)C[C@H]8C(=O)N[C@@H](C)c8ccc(-c9scnc9C)cc8)C(C)C)on7)C5)CC6)nc4c3F)c12 [Compound 225] | 80 to 100% | < 600 nM
3 | Cc1ncsc1-c1ccc([C@H](C)NC(=O)[C@@H]2C[C@@H](O)CN2C(=O)[C@@H](c2cc(N3CCN(C(=O)OC[C@@H]4CC[C@@]5(COc6nc(N7CC8CCC(C7)N8)c7cnc(-c8cc(O)cc(Cl)c8C(F)(F)F)c(F)c7n6)CCCN45)CC3)no2)C(C)C)cc1 (relative stereo) [Compound 257, [(3S,8R)-8-[[7-[3-chloro-5-hydroxy-2-(trifluoromethyl)phenyl]-4-(3,8-diazabicyclo[3.2.1]octan-3-yl)-8-fluoro-pyrido[4,3-d]pyrimidin-2-yl]oxymethyl]-1,2,3,5,6,7-hexahydropyrrolizin-3-yl]methyl 4-[5-[(1R)-1-[(2S,4R)-4-hydroxy-2-[[(1S)-1-[4-(4-methylthiazol-5-yl)phenyl]ethyl]carbamoyl]pyrrolidine-1-carbonyl]-2-methyl-propyl]isoxazol-3-yl]piperazine-1-carboxylate] | 80 to 100% | < 600 nM
4 | CCc1cccc2cc(O)cc(-c3ncc4c(N5CC6CCC(C5)N6)nc(OC[C@@]56CCCN5[C@H](CN5CCC(F)(COc7cc([C@@H](C(=O)N8C[C@H](O)C[C@H]8C(=O)N[C@@H](C)c8ccc(-c9scnc9C)cc8)C(C)C)on7)CC5)CC6)nc4c3F)c12 [Compound 336, (2S,4R)-1-[(2S)-2-[3-[[1-[[(3S,8S)-8-[[4-(3,8-diazabicyclo[3.2.1]octan-3-yl)-7-(8-ethyl-3-hydroxy-1-naphthyl)-8-fluoro-pyrido[4,3-d]pyrimidin-2-yl]oxymethyl]-1,2,3,5,6,7-hexahydropyrrolizin-3-yl]methyl]-4-fluoro-4-piperidyl]methoxy]isoxazol-5-yl]-3-methyl-butanoyl]-4-hydroxy-N-[(1S)-1-[4-(4-methylthiazol-5-yl)phenyl]ethyl]pyrrolidine-2-carboxamide] | 20 to 60% | 1000 to 3000 nM
5 | C#Cc1c(F)ccc2cc(O)cc(-c3ncc4c(N5CC6CCC(C5)N6)nc(OCCN5CCC(F)(CN6CCN(c7cc([C@H](C(=O)N8C[C@H](O)C[C@H]8C(=O)N[C@@H](C)c8ccc(-c9ccnn9C)cc8)C(C)C)on7)CC6)CC5)nc4c3F)c12 [Compound 198, (2S,4R)-1-[(2R)-2-(3-{4-[(1-{2-[(4-{3,8-diazabicyclo[3.2.1]octan-3-yl}-7-(8-ethynyl-7-fluoro-3-hydroxynaphthalen-1-yl)-8-fluoropyrido[4,3-d]pyrimidin-2-yl)oxy]ethyl}-4-fluoropiperidin-4-yl)methyl]piperazin-1-yl}-1,2-oxazol-5-yl)-3-methylbutanoyl]-4-hydroxy-N-[(1S)-1-[4-(1-methyl-1H-pyrazol-5-yl)phenyl]ethyl]pyrrolidine-2-carboxamide] | 80 to 100% | < 600 nM
6 | CCc1cccc2cc(O)cc(-c3ncc4c(N5CC6CCC(C5)N6)nc(OC5CCN(CC6CCN(c7cc([C@H](C(=O)N8C[C@H](O)C[C@H]8C(=O)N[C@@H](C)c8ccc(-c9scnc9C)cc8)C(C)C)on7)CC6)CC5)nc4c3F)c12 [Compound 166, (2S,4R)-1-[(2R)-2-{3-[4-({4-[(4-{3,8-diazabicyclo[3.2.1]octan-3-yl}-7-(8-ethyl-3-hydroxynaphthalen-1-yl)-8-fluoropyrido[4,3-d]pyrimidin-2-yl)oxy]piperidin-1-yl}methyl)piperidin-1-yl]-1,2-oxazol-5-yl}-3-methylbutanoyl]-4-hydroxy-N-[(1S)-1-[4-(4-methyl-1,3-thiazol-5-yl)phenyl]ethyl]pyrrolidine-2-carboxamide] | 20 to 60% | < 600 nM
7 | Cc1ncsc1-c1ccc([C@H](C)NC(=O)[C@@H]2C[C@@H](O)CN2C(=O)[C@@H](c2cc(N3CCN(C(=O)OC[C@@H]4CC[C@@]5(COc6nc(N7CC8CCC(C7)N8)c7cnc(-c8cc(O)cc(Cl)c8C8CC8)c(F)c7n6)CCCN45)CC3)no2)C(C)C)cc1 (relative stereo) [Compound 258, [(3S,8R)-8-[[7-(3-chloro-2-cyclopropyl-5-hydroxy-phenyl)-4-(3,8-diazabicyclo[3.2.1]octan-3-yl)-8-fluoro-pyrido[4,3-d]pyrimidin-2-yl]oxymethyl]-1,2,3,5,6,7-hexahydropyrrolizin-3-yl]methyl 4-[5-[(1R)-1-[(2S,4R)-4-hydroxy-2-[[(1S)-1-[4-(4-methylthiazol-5-yl)phenyl]ethyl]carbamoyl]pyrrolidine-1-carbonyl]-2-methyl-propyl]isoxazol-3-yl]piperazine-1-carboxylate] | 80 to 100% | < 600 nM
8 | CCc1cccc2cc(O)cc(-c3ncc4c(N5CC6CCC(C5)N6)nc(OCCN5CCC(C)(COc6cc([C@H](C(=O)N7C[C@H](O)C[C@H]7C(=O)N[C@@H](C)c7ccc(-c8scnc8C)cc7)C(C)C)on6)CC5)nc4c3F)c12 [Compound 32, (2S,4R)-1-[(2R)-2-{3-[(1-{2-[(4-{3,8-diazabicyclo[3.2.1]octan-3-yl}-7-(8-ethyl-3-hydroxynaphthalen-1-yl)-8-fluoropyrido[4,3-d]pyrimidin-2-yl)oxy]ethyl}-4-methylpiperidin-4-yl)methoxy]-1,2-oxazol-5-yl}-3-methylbutanoyl]-4-hydroxy-N-[(1S)-1-[4-(4-methyl-1,3-thiazol-5-yl)phenyl]ethyl]pyrrolidine-2-carboxamide] | 80 to 100% | < 600 nM
9 | CCc1cccc2cc(O)cc(-c3ncc4c(N5CC6CCC(C5)N6)nc(OC[C@@]56CCCN5[C@H](COc5cc([C@H](C(=O)N7C[C@H](O)C[C@H]7C(=O)N[C@@H](C)c7ccc(-c8scnc8C)cc7)C(C)C)on5)CC6)nc4c3F)c12 [Compound 29, (2S,4R)-1-[(2R)-2-(3-{[(3S,7aS)-7a-{[(4-{3,8-diazabicyclo[3.2.1]octan-3-yl}-7-(8-ethyl-3-hydroxynaphthalen-1-yl)-8-fluoropyrido[4,3-d]pyrimidin-2-yl)oxy]methyl}-hexahydro-1H-pyrrolizin-3-yl]methoxy}-1,2-oxazol-5-yl)-3-methylbutanoyl]-4-hydroxy-N-[(1S)-1-[4-(4-methyl-1,3-thiazol-5-yl)phenyl]ethyl]pyrrolidine-2-carboxamide] | 80 to 100% | < 600 nM
10 | CCc1cccc2cc(O)cc(-c3ncc4c(N5CC6CCC(C5)N6)nc(OCCN5CCC(CC6CCN(c7cc([C@@H](C(=O)N8C[C@H](O)C[C@H]8C(=O)N[C@@H](C)c8ccc(-c9ccnn9C)cc8)C(C)C)on7)CC6)CC5)nc4c3F)c12 [Compound 210, (2S,4R)-1-[(2S)-2-(3-{4-[(1-{2-[(4-{3,8-diazabicyclo[3.2.1]octan-3-yl}-7-(8-ethyl-3-hydroxynaphthalen-1-yl)-8-fluoropyrido[4,3-d]pyrimidin-2-yl)oxy]ethyl}piperidin-4-yl)methyl]piperidin-1-yl}-1,2-oxazol-5-yl)-3-methylbutanoyl]-4-hydroxy-N-[(1S)-1-[4-(1-methyl-1H-pyrazol-5-yl)phenyl]ethyl]pyrrolidine-2-carboxamide] | 20 to 60% | 600 to 1000 nM
11 | CCc1cccc2cc(O)cc(-c3ncc4c(N5CC6CCC(C5)N6)nc(OC[C@]56CCCN5[C@H](COC(=O)N5CC(Oc7cc([C@@H](C(=O)N8C[C@H](O)C[C@H]8C(=O)N[C@@H](C)c8ccc(-c9scnc9C)cc8)C(C)C)on7)C5)CC6)nc4c3F)c12 [Compound 129, [(3S,7aR)-7a-{[(4-{3,8-diazabicyclo[3.2.1]octan-3-yl}-7-(8-ethyl-3-hydroxynaphthalen-1-yl)-8-fluoropyrido[4,3-d]pyrimidin-2-yl)oxy]methyl}-hexahydro-1H-pyrrolizin-3-yl]methyl 3-({5-[(2S)-1-[(2S,4R)-4-hydroxy-2-{[(1S)-1-[4-(4-methyl-1,3-thiazol-5-yl)phenyl]ethyl]carbamoyl}pyrrolidin-1-yl]-3-methyl-1-oxobutan-2-yl]-1,2-oxazol-3-yl}oxy)azetidine-1-carboxylate] | 60 to 80% | < 600 nM
12 | Cc1ncsc1-c1ccc([C@H](C)NC(=O)[C@@H]2C[C@@H](O)CN2C(=O)[C@@H](c2cc(N3CCN(C(=O)OC[C@H]4CC[C@]5(COc6nc(N7CC8CCC(C7)N8)c7cnc(-c8cccc9ccc(F)c(F)c89)c(F)c7n6)CCCN45)CC3)no2)C(C)C)cc1 (relative stereo) [Compound 63, [(3R,7aS)-7a-{[(4-{3,8-diazabicyclo[3.2.1]octan-3-yl}-7-(7,8-difluoronaphthalen-1-yl)-8-fluoropyrido[4,3-d]pyrimidin-2-yl)oxy]methyl}-hexahydro-1H-pyrrolizin-3-yl]methyl 4-{5-[(2R*)-1-[(2S,4R)-4-hydroxy-2-{[(1S)-1-[4-(4-methyl-1,3-thiazol-5-yl)phenyl]ethyl]carbamoyl}pyrrolidin-1-yl]-3-methyl-1-oxobutan-2-yl]-1,2-oxazol-3-yl}piperazine-1-carboxylate] | 20 to 60% | < 600 nM
